The nature of the series: Release of ibuprofen from pellets of 25 μm microcrystals in pH buffers, light absorption at 220 nm. It counts as physicochemical. As to conditions: pH 7.4. From the text: In another example, 25 μm ibuprofen microcrystals were encapsulated with the iCVD P(MAA-EDMA) copolymer and likewise ibuprofen release was tracked over time at different pH conditions. FIG. 26a gives the time release profiles, comparing uncoated and coated ibuprofen at pH 1.2 and 7.4. […] This enhanced protection in acids would be important for drugs such as ibuprofen and other non-steroidal anti-inflammatory drugs that are known to cause stomach ulceration and hemorrhaging, leading to mucosal damage and severe blood loss with acute dosage and prolonged administration. [S. E. Gabriel, L. Jaakkimainen, C. Bombardier, Ann. Intern. Med. 1991, 115, 787-796; and [ M. M. Wolfe, D. R. Lichtenstein, G. Singh, N. Engl. J. Med. 1999, 340, 1888-1899.] The increase in drug dissolution and activity by using finer drug particles would likely exacerbate this problem. […]
Release Measurements. […] For fluorescein, release was monitored at 490 nm, comparing fluorescein layered on silicon substrates that were exposed or encapsulated with an iCVD P(MAA-EDMA) coating. For ibuprofen, 25 μm ibuprofen microcrystals (DuPont), that were bare or encapsulated with an iCVD P(MAA-EDMA) coating, were compressed into pellets and their release monitored at 220 nm. Absorption was measured on a Varian Cary 6000i.

Experimental findings from patent publication US9492805B2, “Initiated chemical vapor deposition of vinyl polymers for the encapsulation of particles” (Massachusetts Institute of Technology, priority 2005, dated 2016) are described below.

For the molecule `CC(C)Cc1ccc(C(C)C(=O)O)cc1` (stereo not shown) [ibuprofen], the “release of ibuprofen at near neutral pH” value is on record as “relatively fast”.
